Laboratory results from US8846639B2, “Oligomeric compounds comprising bicyclic nucleosides and having reduced toxicity” (Isis Pharmaceutical, Inc., priority 2008, dated 2014).

Tests used:
[1] = system: PTEN mRNA; assay: PTEN mRNA levels in liver, real-time PCR (Example 13 in vivo study); settings: Balb/c mice, 72 h, normalized to saline control
Procedure: (§1) In accordance with the present invention, oligomeric compounds were synthesized and tested for their ability to reduce PTEN expression in vivo at doses of 20 and 60 mg/kg. Six week old male Balb/c mice (Jackson Laboratory, Bar Harbor, Me.) were administered a single intraperitoneal (i.p) injection at either 20 or 60 mg/kg of 4′-CH2—O-2′ BNA 2-10-2 gapped oligomers ([…] and 392745). The 4′-CH2—O-2′ BNA gapped oligomer, 392745, contains non-methylated pyrimidine in the wings. The 4′-CH2—O-2′ BNA gapped oligomer, 392063, contains methylated pyrimidine in the wings (i.e. each cytosine residues in the 4′-CH2—O-2′ BNA wings of 392745 are replaced with 5-methylcytosines, while the thymidine residues in the 4′-CH2—O-2′ BNA wings of 392745 are replaced with 5-methyl thymidines). All internucleoside linkages are phosphorothioates, nucleosides not followed by a subscript are βD-2′-deoxyribonucleosides, nucleosides followed by a subscript 1 are 4′-CH2—O-2′ modified bicyclic nucleosides and ^MeC indicates a 5′-methyl cytosine nucleoside.
(§2) Each dose group consisted of four animals. The mice were sacrificed 72 hours following the final administration to determine the PTEN mRNA levels in liver using real-time PCR and RIBOGREEN® RNA quantification reagent (Molecular Probes, Inc. Eugene, Oreg.) according to standard protocols. PTEN mRNA levels were determined relative to total RNA (using Ribogreen), prior to normalization to saline-treated control. Results are listed below as the average % inhibition of mRNA expression for each treatment group, normalized to saline-injected control. Resulting dose-response curves were used to determine the IC50. Tm's were assessed in 100 mM phosphate buffer, 0.1 mM EDTA, pH 7, at 260 nm using 4 μM modified oligomers and 4 μM complementary RNA.

[2] = Liver, kidney, spleen weights and body weight gain (Example 13); assay type: in vivo, mice; settings: for Kidney weight / Liver weight / Spleen weight: saline = 1.00; for Body weight gain: saline = 1.05; for liver, kidney, spleen weights or body weight gain compared to saline: normal mice, 20 and 60 mg/kg
Procedure: as §1
The effects on liver, kidney, spleen weights and body weight gain were also determined.

[3] = Liver transaminase levels (ALT, AST) in serum (Example 13); assay type: in vivo, mice; settings: for transaminase levels with respect to saline treated control: 20 mg/kg; for ALT / AST: serum; for ALT: saline = 24; for AST: saline = 68
Procedure: as §1
Liver transaminase levels, alanine aminotranferease (ALT) and aspartate aminotransferase (AST), in serum were also measured relative to saline injected mice. Increases in the transaminase levels can indicate hepatotoxicity. […] The ALT and AST levels measured for mice treated with 60 mg/kg does of 392745 were decreased about 4.5-fold and 3 fold as compared to 392063 treatment. The approximate liver transaminase levels are listed below.

[4] = system: complementary RNA; assay: Tm of modified oligomers with complementary RNA; assay type: binding; settings: 100 mM phosphate buffer, 0.1 mM EDTA, pH 7, 260 nm, 4 μM oligomer and 4 μM complementary RNA
Procedure: as §2

[5] = system: PTEN mRNA; assay: PTEN mRNA levels in liver, real-time PCR (Example 14 in vivo study); design: species or system mice; settings: for PTEN mRNA levels (% inhibition): liver, 72 h; for ED50: estimated, Graphpad Prism, dose at which 50% mRNA reduction is observed
Procedure: (§3) Six week old male Balb/c mice (Jackson Laboratory, Bar Harbor, Me.) were administered a single intraperitoneal (i.p) injection with 4′-CH2—O-2′ BNA containing oligomers (392745 and 392063) and 6(S)-4′-CH(CH3)—O-2′ BNA containing oligomers (392749 and 411847) at a does of 3.2, 10, 32, 66 and 100 mg/kg. Oligomers 392063 and 411847 contain LNA nucleosides with methylated pyrimidines, and oligomers 392745 and 392749 contain LNA nucleosides with non-methylated pyrimidines in the wings. All intemucleoside linkages are phosphorothioates, nucleosides not followed by a subscript are βD-2′-deoxyribonucleosides, nucleosides followed by a subscript 1 are 4′-CH2—O-2′ modified bicyclic nucleosides, nucleosides followed by a subscript S are 6(S)-4′-CH(CH3)—O-2′ modified bicyclic nucleosides wherein S indicates the configuration at the 6 carbon atom and ^MeC indicates a 5′-methyl cytosine nucleoside.
as §2, with “control.” for “control. Resulting dose-response curves were used to determine the IC50. Tm's were assessed in 100 mM phosphate buffer, 0.1 mM EDTA, pH 7, at 260 nm using 4 μM modified oligomers and 4 μM complementary RNA.”
Estimated ED50 concentrations for each oligomers were calculated using Graphpad Prism. ED50 is the dose at which 50% mRNA reducation is observed.

[6] = Liver transaminase (ALT) levels in serum (Example 14); assay type: in vivo, mice
Procedure: as §3
Liver transaminase levels, alanine aminotranferease (ALT) and aspartate aminotransferase (AST), in serum were also measured relative to saline injected mice. Increases in the transaminase levels can indicate hepatotoxicity. The approximate liver transaminase levels are listed below.

Substance	% inhibition (PTEN mRNA expression in liver) ([1]; 20 mg/kg single i.p.) [%]	% inhibition (PTEN mRNA expression in liver) ([1]; 60 mg/kg single i.p.) [%]	Kidney weight ([2]; 20 mg/kg)	Liver weight ([2]; 20 mg/kg)	Spleen weight ([2]; 20 mg/kg)	Body weight gain ([2]; 20 mg/kg)	Kidney weight ([2]; 60 mg/kg)	Liver weight ([2]; 60 mg/kg)	Spleen weight ([2]; 60 mg/kg)	Body weight gain ([2]; 60 mg/kg)	liver, kidney, spleen weights or body weight gain compared to saline [2]	transaminase levels with respect to saline treated control [3]	ALT ([3]; 20 mg/kg single i.p.) [IU/L]	AST ([3]; 20 mg/kg single i.p.) [IU/L]	ALT ([3]; 60 mg/kg single i.p.) [IU/L]	AST ([3]; 60 mg/kg single i.p.) [IU/L]	Tm [4] [°C]	PTEN mRNA levels (% inhibition) ([5]; 3.2 mg/kg single i.p.) [%]	PTEN mRNA levels (% inhibition) ([5]; 10 mg/kg single i.p.) [%]	PTEN mRNA levels (% inhibition) ([5]; 32 mg/kg single i.p.) [%]	also measured
^MeC1T1TAGCACTGGC^MeC1T1 [ISIS 392063]	86	92	1.02	1.22	0.99	1.05	1.00	1.29	1.11	0.99	did not substantially alter	not elevated to a level indicative of hepatotoxicity	28	56	489	598	60.5	0	68	88	ALT and AST levels ([3]; 60 mg/kg): substantially increased; PTEN mRNA levels (% inhibition) ([5]; 66 mg/kg single i.p.): 90%; PTEN mRNA levels (% inhibition) ([5]; 100 mg/kg single i.p.): 91%; ED50 [5]: 8 mg/kg; ALT levels ([6]; 3.2 mg/kg, serum, saline = 24): 20 IU/L; ALT levels ([6]; 10 mg/kg, serum, saline = 24): 17 IU/L; ALT levels ([6]; 32 mg/kg, serum, saline = 24): 20 IU/L; ALT levels ([6]; 66 mg/kg, serum, saline = 24): 4292 IU/L; ALT levels ([6]; 100 mg/kg, serum, saline = 24): 13811 IU/L; ALT levels ([6]; higher doses (66 mg/kg and 100 mg/kg)): substantially increased
C1U1TAGCACTGGCC1U1 [ISIS 392745]	89	92	1.02	1.22	1.14	1.06	1.02	1.25	1.12	1.01	did not substantially alter	not elevated to a level indicative of hepatotoxicity	29	81	108	202	58.6	0	58	90	ALT level decrease as compared to 392063 treatment ([3]; 60 mg/kg): about 4.5 fold; AST level decrease as compared to 392063 treatment ([3]; 60 mg/kg): ~3 fold; PTEN mRNA levels (% inhibition) ([5]; 66 mg/kg single i.p.): 90%; PTEN mRNA levels (% inhibition) ([5]; 100 mg/kg single i.p.): 93%; ED50 [5]: 9 mg/kg; ALT levels ([6]; 3.2 mg/kg, serum, saline = 24): 30 IU/L; ALT levels ([6]; 10 mg/kg, serum, saline = 24): 20 IU/L; ALT levels ([6]; 32 mg/kg, serum, saline = 24): 13 IU/L; ALT levels ([6]; 66 mg/kg, serum, saline = 24): 59 IU/L; ALT level decrease as compared to 392063 treatment ([6]; 100 mg/kg): about 3.5 fold; ALT levels ([6]; 100 mg/kg, serum, saline = 24): 3842 IU/L; ALT levels with respect to saline treated control ([6]; lower doses (3.2, 10, 32 and 66 mg/kg)): not elevated to a level indicative of hepatotoxicity
